Data set [1] deals with bicistronic HCV replicon (replicon RNA, GenBank Accession No. AJ242654). Kind of data set: HCV Replicon Assay. In kind it is cell-based. The following applies: Hepatitis C virus, 72 h, read-out: Replicon IC50.

As to `C[C@H](NS(=O)(=O)c1cnc(-c2c(C(N)=O)c3ccc(OC(F)F)cc3n2C2CCCCC2)nc1)C(F)(F)F` [compound 746, 1-cyclohexyl-6-(difluoromethoxy)-2-(5-{[(2S)-1,1,1-trifluoropropan-2-yl]sulfamoyl}pyrimidin-2-yl)-1H-indole-3-carboxamide], the melting point (usually the temperature, or range, at which the solid turns liquid) was in the range of 217 to 219 °C. The 50% inhibitory concentration (IC50) (usually the concentration that gives 50% inhibition) in data set [1] was below 500 nM.
The molecule `CC(C)NS(=O)(=O)c1cnc(-c2c(C(N)=O)c3ccc(OC(F)F)cc3n2C2CCCCC2)nc1` [compound 747, 1-cyclohexyl-6-(difluoromethoxy)-2-[5-(propan-2-ylsulfamoyl)pyrimidin-2-yl]-1H-indole-3-carboxamide] had a melting point of 216 to 218 °C. For the same molecule, in data set [1], the concentration for half-maximal inhibition (IC50) is below 500 nM.
Taken in the same sequence, the figures for `COc1cc2c(C#N)c(-c3ccc(S(=O)(=O)N[C@@H](C)C(F)(F)F)cn3)n(C3CCC3)c2cc1C` [compound 757, 6-(3-cyano-1-cyclobutyl-5-methoxy-6-methyl-1H-indol-2-yl)-N-[(2S)-1,1,1-trifluoropropan-2-yl]pyridine-3-sulfonamide] were 222 to 223 °C and 500 to 2000 nM.
For `CCNC(=O)c1c(-c2ccc(S(=O)(=O)N[C@@H](C)C(F)(F)F)cn2)n(C2CCCC2)c2cc(C)c(F)cc12` [compound 762, 1-cyclopentyl-N-ethyl-5-fluoro-6-methyl-2-(5-{[(2S)-1,1,1-trifluoropropan-2-yl]sulfamoyl}pyridin-2-yl)-1H-indole-3-carboxamide], the melting point lay within 160 to 162 °C. Besides, the IC50 in data set [1] was below 500 nM.
For the molecule `Cc1cc2c(cc1F)c(C(=O)NC(C)C)c(-c1ccc(S(=O)(=O)N[C@@H](C)C(F)(F)F)cn1)n2C1CCCC1` [compound 763, 1-cyclopentyl-5-fluoro-6-methyl-N-(propan-2-yl)-2-(5-{[(2S)-1,1,1-trifluoropropan-2-yl]sulfamoyl}pyridin-2-yl)-1H-indole-3-carboxamide], the melting point lay in the range of 234 to 236 °C. Also, in data set [1], the IC50 lay within 500 to 2000 nM.
`CCc1cc2c(cc1F)c(C#N)c(-c1ccc(S(=O)(=O)NC(C)(C)C)cn1)n2C1CCC1` [compound 764, N-tert-butyl-6-(3-cyano-1-cyclobutyl-6-ethyl-5-fluoro-1H-indol-2-yl)pyridine-3-sulfonamide] returned a melting point of 186 to 188 °C. Besides, the IC50 in data set [1] was below 500 nM.
The like results for `Cc1cc2c(cc1F)c(C(=O)O)c(-c1ccc(S(=O)(=O)NC(C)(C)C(F)(F)F)cn1)n2C1CCCC1` [compound 765, 1-cyclopentyl-5-fluoro-6-methyl-2-{5-[(1,1,1-trifluoro-2-methylpropan-2-yl)sulfamoyl]pyridin-2-yl}-1H-indole-3-carboxylic acid] were, in that order, 233 to 234 °C and below 500 nM.
The like results for `Cc1cc2c(cc1F)c(C(=O)O)c(-c1ccc(S(=O)(=O)NC(C)(C)C)cn1)n2C1CCCC1` [compound 766, 2-[5-(tert-butylsulfamoyl)pyridin-2-yl]-1-cyclopentyl-5-fluoro-6-methyl-1H-indole-3-carboxylic acid] were, in that order, 238 to 240 °C and below 500 nM.
Taken in the same sequence, the figures for `Cc1cc2c(cc1F)c(C(N)=O)c(-c1ccc(S(=O)(=O)N[C@H](C)C(F)(F)F)cn1)n2C1CCOCC1` [compound 767, 5-fluoro-6-methyl-1-(tetrahydro-2H-pyran-4-yl)-2-(5-{[(2R)-1,1,1-trifluoropropan-2-yl]sulfamoyl}pyridin-2-yl)-1H-indole-3-carboxamide] were 258 to 262 °C and below 500 nM.
Turning to `Cc1cc2c(cc1F)c(C(N)=O)c(-c1ccc(S(=O)(=O)NC(C)(C)C(F)(F)F)cn1)n2C1CCOCC1` [compound 768, 5-fluoro-6-methyl-1-(tetrahydro-2H-pyran-4-yl)-2-{5-[(1,1,1-trifluoro-2-methylpropan-2-yl)sulfamoyl]pyridin-2-yl}-1H-indole-3-carboxamide], the melting point fell in the range of 200 to 206 °C. Moreover, the concentration for half-maximal inhibition (IC50) in data set [1] was below 500 nM.
`Cc1cc2c(cc1F)c(C(N)=O)c(-c1ccc(S(=O)(=O)N[C@@H](C)C(F)(F)F)cn1)n2C1CCOCC1` [compound 769, 5-fluoro-6-methyl-1-(tetrahydro-2H-pyran-4-yl)-2-(5-{[(2S)-1,1,1-trifluoropropan-2-yl]sulfamoyl}pyridin-2-yl)-1H-indole-3-carboxamide] came in with a melting point of 261 to 264 °C. Moreover, in data set [1], the IC50 was below 500 nM.
The like results for `CSc1cc2c(cc1F)c(C#N)c(-c1ccc(S(=O)(=O)N[C@@H](C)C(F)(F)F)cn1)n2C1CCC1` [compound 772, 6-[3-cyano-1-cyclobutyl-5-fluoro-6-(methylsulfanyl)-1H-indol-2-yl]-N-[(2S)-1,1,1-trifluoropropan-2-yl]pyridine-3-sulfonamide] were, in that order, 201 to 203 °C and below 500 nM.
The like results for `CCc1cc2c(cc1F)c(C#N)c(-c1ccc(S(=O)(=O)N[C@@H](C)C(F)(F)F)cn1)n2-c1ccc(F)cn1` [compound 777, 6-[3-cyano-6-ethyl-5-fluoro-1-(5-fluoropyridin-2-yl)-1H-indol-2-yl]-N-[(2S)-1,1,1-trifluoropropan-2-yl]pyridine-3-sulfonamide] were, in that order, 210 to 212 °C and below 500 nM.
`CC(C)NS(=O)(=O)c1cnc(-c2c(C(N)=O)c3ccc(Cl)cc3n2C2CCC2)nc1` [compound 780, 6-chloro-1-cyclobutyl-2-[5-(propan-2-ylsulfamoyl)pyrimidin-2-yl]-1H-indole-3-carboxamide] showed a melting point of 251 to 253 °C. The IC50 in data set [1] is below 500 nM.
The like results for `CC(C)NS(=O)(=O)c1cnc(-c2c(C(N)=O)c3ccc(OC(F)(F)F)cc3n2C2CCC2)nc1` [compound 781, 1-cyclobutyl-2-[5-(propan-2-ylsulfamoyl)pyrimidin-2-yl]-6-(trifluoromethoxy)-1H-indole-3-carboxamide] were, in that order, 222 to 223 °C and below 500 nM.
`CC(C)NS(=O)(=O)c1cnc(-c2c(C(N)=O)c3ccc(OC(F)(F)F)cc3n2C2CCCC2)nc1` [compound 782, 1-cyclopentyl-2-[5-(propan-2-ylsulfamoyl)pyrimidin-2-yl]-6-(trifluoromethoxy)-1H-indole-3-carboxamide] showed a melting point of 238 to 241 °C. Besides, in data set [1], the IC50 is below 500 nM.
The like results for `Cc1cc2c(cc1F)c(C(=O)N(C)C)c(-c1ccc(S(=O)(=O)N[C@@H](C)C(F)(F)F)cn1)n2C1CCCC1` [compound 783, 1-cyclopentyl-5-fluoro-N,N,6-trimethyl-2-(5-{[(2S)-1,1,1-trifluoropropan-2-yl]sulfamoyl}pyridin-2-yl)-1H-indole-3-carboxamide] were, in that order, 278 to 280 °C and 2000 to 5000 nM.
Taken in the same sequence, the figures for `CC(C)n1c(-c2ccc(S(=O)(=O)N[C@@H](C)C(F)(F)F)cn2)c(C#N)c2c(F)cc(OC(F)F)cc21` [compound 784, 6-[3-cyano-6-(difluoromethoxy)-4-fluoro-1-(propan-2-yl)-1H-indol-2-yl]-N-[(2S)-1,1,1-trifluoropropan-2-yl]pyridine-3-sulfonamide] were 193 to 194 °C and below 500 nM.
In the case of `Cc1cc2c(cc1Cl)c(C#N)c(-c1ccc(S(=O)(=O)N[C@@H](C)C(F)(F)F)cn1)n2-c1ncccn1` [compound 785, 6-[5-chloro-3-cyano-6-methyl-1-(pyrimidin-2-yl)-1H-indol-2-yl]-N-[(2S)-1,1,1-trifluoropropan-2-yl]pyridine-3-sulfonamide], the melting point was 210 to 212 °C. For the same molecule, the half-inhibitory concentration (IC50) in data set [1] is below 500 nM.
Taken in the same sequence, the figures for `CCCn1c(-c2ccc(S(=O)(=O)N[C@@H](C)C(F)(F)F)cn2)c(C#N)c2cc(F)c(OC(F)F)cc21` [compound 786, 6-[3-cyano-6-(difluoromethoxy)-5-fluoro-1-propyl-1H-indol-2-yl]-N-[(2S)-1,1,1-trifluoropropan-2-yl]pyridine-3-sulfonamide] were 162 to 168 °C and below 500 nM.
Taken in the same sequence, the figures for `C[C@H](NS(=O)(=O)c1ccc(-c2c(C#N)c3cc(F)c(OC(F)F)cc3n2CC2CC2)nc1)C(F)(F)F` [compound 787, 6-[3-cyano-1-(cyclopropylmethyl)-6-(difluoromethoxy)-5-fluoro-1H-indol-2-yl]-N-[(2S)-1,1,1-trifluoropropan-2-yl]pyridine-3-sulfonamide] were 149 to 153 °C and below 500 nM.
The like results for `CCCn1c(-c2ccc(S(=O)(=O)N[C@H](C)C(F)(F)F)cn2)c(C#N)c2cc(F)c(OC(F)F)cc21` [compound 788, 6-[3-cyano-6-(difluoromethoxy)-5-fluoro-1-propyl-1H-indol-2-yl]-N-[(2R)-1,1,1-trifluoropropan-2-yl]pyridine-3-sulfonamide] were, in that order, 160 to 166 °C and below 500 nM.
On to `C[C@@H](NS(=O)(=O)c1ccc(-c2c(C#N)c3cc(F)c(OC(F)F)cc3n2CC2CC2)nc1)C(F)(F)F` [compound 789, 6-[3-cyano-1-(cyclopropylmethyl)-6-(difluoromethoxy)-5-fluoro-1H-indol-2-yl]-N-[(2R)-1,1,1-trifluoropropan-2-yl]pyridine-3-sulfonamide], for which the melting point is 148 to 153 °C. Besides, in data set [1], the IC50 was below 500 nM.
The like results for `N#Cc1c(-c2ccc(S(=O)(=O)Nc3ccccc3)cn2)n(C2CCC2)c2cc(OC(F)F)c(F)cc12` [compound 791, 6-[3-cyano-1-cyclobutyl-6-(difluoromethoxy)-5-fluoro-1H-indol-2-yl]-N-phenylpyridine-3-sulfonamide] were, in that order, 178 to 179 °C and 2000 to 5000 nM.
The like results for `Cc1cc2c(cc1F)c(C(=O)O)c(-c1ccc(S(=O)(=O)N[C@@H](C)C(F)(F)F)cn1)n2C1CCC1` [compound 793, 1-cyclobutyl-5-fluoro-6-methyl-2-(5-{[(2S)-1,1,1-trifluoropropan-2-yl]sulfamoyl}pyridin-2-yl)-1H-indole-3-carboxylic acid] were, in that order, 234 to 240 °C and below 500 nM.

The values are drawn from patent US8735414B2 (priority 2009, dated 2014).
